Data published in ChEMBL document CHEMBL1126492, “Cytotoxicity of ent-udoteatrial diacetate and its analogues” (Bioorg Med Chem Lett, 1993).
Values after ≈ are worked out from the molar mass of the structure shown.

Assays:
A549 = assay: In vitro cytotoxicity against human lung carcinoma A-549 cell line; format: functional, cell-based
KB = assay: In vitro cytotoxicity against human oral epidermoid carcinoma KB cell line; format: functional, cell-based

Compound | IC50 (A549) [µg/mL] | IC50 (KB) [µg/mL]
CC(=O)O[C@H]1O[C@@H]2O[C@@H](OC(C)=O)[C@@H]3CC[C@H]([C@@H]1C)[C@H]23 | > 25 | > 25
CC(=O)O[C@@H]1O[C@@H]2O[C@@H](OC(C)=O)[C@@H]3CC[C@H]([C@H]1CC/C=C(\C)CCC=C(C)C)[C@H]23 | 1.9 (≈ 4.52 µM) | 1.6 (≈ 3.8 µM)
CC(=O)OC1O[C@@H]2O[C@@H](OC(C)=O)[C@@H]3CC[C@@H]([C@H]23)[C@H]1C (stereo not given in full) | > 25 | > 25
CC(=O)O[C@H]1O[C@@H]2O[C@@H](OC(C)=O)[C@@H]3CC[C@H]([C@@H]1CC/C=C(\C)CCC=C(C)C)[C@H]23 | 3.9 (≈ 9.27 µM) | 3.4 (≈ 8.08 µM)
CC(=O)O[C@H]1O[C@@H]2O[C@@H](OC(C)=O)[C@@H]3CC[C@H]([C@H]1CC/C=C(\C)CCC=C(C)C)[C@H]23 | 0.5 (≈ 1.19 µM) | 0.4 (≈ 0.951 µM)
